Data from patent US8722937B2 (priority 2006, dated 2014).
In brackets after ≈: the same amount, converted by molar mass.

Columns and labels:
Format in all cases: cell-based, Staphylococcus aureus
S. aureus (ATCC 25923) [1] = experiment: Agar dilution minimum inhibitory concentration (MIC), S. aureus; details: MSSA ATCC 25923
S. aureus (ATCC 25923) [2] = experiment: microbe, parasite or virus in culture
MRSA (ATCC 43300) = experiment: Minimum inhibitory concentration (MIC), MRSA
[3] = system: methicillin-resistant S. aureus (MRSA); experiment: microbe, parasite or virus in culture

CSN1C(=O)OCC1c1ccccc1 (stereo not shown) [Compound 13, reference compound]
MIC (MSSA) (S. aureus (ATCC 25923) [1]): 4 µg/mL (≈ 19.1 µM)
Zone (MSSA) (S. aureus (ATCC 25923) [2]): 29 mm
MIC (MRSA) (MRSA (ATCC 43300)): 8 µg/mL (≈ 38.2 µM)
Zone (MRSA) [3]: 28 mm
